{
  "source": "patent US20250127857A1",
  "about": "“A COMPOSITION COMPRISING IL-36 AND/OR IL-18 FOR USE IN TREATING OCULAR DISORDERS” (THE PROVOST, FELLOWS, FOUNDATION SCHOLARS, & THE OTHER …, priority 2021, published 2025)",
  "key": {"[1]": {"tested_on": "VEGF", "assay": "Retinal VEGF ELISA in JR5558 mice", "assay_type": "in vivo, mouse", "settings": "JR5558 mice 3 weeks old, 100 μg/kg i.p. on 4 consecutive days, retinas isolated day 8", "protocol": "FIG. 14 illustrates IL-18 can inhibit VEGF secretion in vivo and in vitro, wherein JR5558 mice at 3 weeks (A) were injected (i.p.) with saline (0 μg/kg) or IL-18 (100 μg/kg) on 4 consecutive days (day 1-4), wherein retinas were isolated on day 8 and VEGF concentration in protein lysates was determined using an appropriate ELISA, wherein data are presented as mean±SEM (n=4-5 animals per each treatment group) and expressed as pg of VEGF per mg of total retinal protein as measured by the BCA assay, *p<0.05 by one-way ANOVA with Tukey post test compared to saline controls; (B) is primary human foetal RPE (hfRPE) cells were treated with control medium (0 ng/ml) or a single dose of IL-18 (1000 ng/ml) for 1 to 72 hours, wherein VEGF concentration in the cell-free supernatants was measured at each time point, wherein rate of VEGF secretion was calculated from the slope of linear regression of VEGF concentration (pg/ml) against time (hours) (C), wherein data are presented as mean±SEM and represent a single experiment carried out in triplicate *p<0.05, ***p<0.001 by Student's t test compared to control at each time point;"}, "[2]": {"tested_on": "occludin", "assay": "Occludin expression in HRMEC (qPCR and immunoblotting)", "assay_type": "cell-based, human", "protocol": "FIG. 18 illustrates IL-18 drives expression of tight junction protein occludin and inhibits VEGF depletion of occluding, wherein HRMECS were treated with either VEGF, IL-18 or IL-1α for the timepoints indicated (top panel) and cells were prepared for RNA isolation and qPCR with expression of occluding measured, wherein HRMECs were treated with VEGF, IL-18 or IL-1 or combinations of these cytokines and cells were prepared for immunoblotting for expression of occludin and b-actin (lower panels);\nFollowing transfer, membranes were blocked by incubating in 5% non-fat dried milk (Marvel) in TBS-T for 1 hour at room temperature whilst shaking. Membranes were incubated with primary antibody diluted in either 5% Marvel or BSA, depending on antibody specification, overnight at 4° C. with gentle agitation. Primary antibody was recovered and stored at −20. Membranes were washed three times in TBS-T for 5 minutes and membranes were incubated with secondary antibody, diluted in 5% Marvel, for 1 hour at room temperature. Secondary antibody was removed and discarded, and excess secondary was removed from the membranes by three 5-minute washes in TBS-T.\nAll RT-PCR assays were carried out using the SensiFAST SYBR Hi-ROX Kit (Bioline) with primers designed using Primer-BLAST (NCBI). For each target a master-mix comprising of 4 μl SYBR Green mix, 0.5 μl of Forward primer (4 μM) and 0.5 μl of Reverse primer (4 μM) along and 3 μl of RNAse free H2O was prepared and mixed thoroughly by vortexing. 8 μl of master-mix was added to each well of a 0.1 mL MicroAMP® Fast 96-well Reaction Plate (Applied Biosystems), along with 2 μl of cDNA and sealed using Optical adhesive film (Applied Biosystems) and spun down for 30 seconds in a centrifuge fitted with microplate rotor (Eppendorf) before running. Plate were run using a QuantStudio 3 real-time PCR System (Applied Biosystems) or the StepOnePlus Real-Time PCR System (Applied Biosystems), with run conditions set as: 50° C. for 2 mins, 95° C. for 10 minutes, 40 cycles of 95° C. for 15 seconds then 60° C. for 1 minute. To assess the quality of Primers a melt-curve stage was added: 95° C. for 1 second, 60° C. for 20 seconds, 95° C. for 1 second. Data were analysed using the QuantStudio™ Design & Analysis software (Applied Biosystems) and using the comparative Ct (ΔΔCt) method where test samples were normalised to endogenous control (β-Actin) followed by normalising the ΔCt of test samples to sample control (untreated sample), then calculating 2^−ΔΔCt to find the relative fold change of test samples over sample control."}, "[3]": {"tested_on": "human ocular choroidal fibroblasts (HOCFs)", "assay": "Activation of human ocular choroidal fibroblasts (vimentin/phalloidin staining)", "assay_type": "cell-based", "settings": "IL-18 increasing doses, 8 h", "protocol": "FIG. 20 illustrates IL-18 activates human ocular choroidal fibroblasts and inhibits VEGF secretion, wherein (A) is human ocular choroidal fibroblast (HOCFs) treated with IL-18 at increasing doses for 8 h, wherein cells were fixed and stained with antibody targeting intermediate filament vimentin (red), Hoechst (blue) and phalloidin (green); (B) is HOCFs treated with IL-18 (100 ng/ml) over 60 mins and immunoblotted for phospho-ERK and phospo-p65 with B-actin and GAPDH as controls; (C) is HOCFs treated with IL-18 (100 ng/ml) over 24 h as indicated, wherein cells were analysed for VEGF expression by qPCR (D) is HOCFs treated with 10, 100 or 1000 ng/ml of IL-18 as indicated over 48 h and cell death was analysed by LDH assay;"}, "[4]": {"tested_on": "bone marrow derived MSCs", "assay": "Bone marrow derived mesenchymal stem cell activation (confocal microscopy)", "assay_type": "cell-based, mouse", "settings": "IL-18 250 ng/ml, 8 h", "protocol": "FIG. 21 illustrates IL-18 activates bone marrow derived mesenchymal stem cells, wherein bone marrow derived MSC's were treated with IL-18 at 250 ng/ml for 8 h and images using confocal microscopy, wherein cells were stained with phalloidin for F-actin, vimentin, smooth muscle actin (SMA) and collagen 1;\nThe femurs from mice were isolated and, using a 20 ml syringe, the bones were flushed with DMEM into a cell culture dish. The flushings were centrifuged for 5 minutes at 1000 rpm. The supernatant was poured off and resuspended in 1 ml of 15% FBS and aMEM media, and filtered through a 70 um nylon mesh into a 50 ml captube. A further 5 ml of 15% FBS and aMEM were added through the mesh tube into the same 50 ml cap tube, and plated in a TC coated dish and cultured in an incubator for 5 days. On Day 5, the dish was washed with PBS 3 times (using PBS with no magnesium or calcium),trypsinized and the trypsin pipetted onto the plate to break up the colonies. 10mis of 10% FBS and DMEM were added and the cells collected in a 50 ml cap tube and this process was repeated once more, centrifuged for 5 mins at 1000 rpm, supernatant poured off, cells resuspended in 1 ml of DMEM and 20% FBS, and plated in a T75 and fed every second day until cells were confluent. When cells were confluent, they were split 1 in 3."}},
  "data": [
    {"substance": "IL-18: recombinant human IL-18 (SB-485232; GSK)", "values": [
      {"measurement": "VEGF levels in the retinas", "setting": "[1]", "result": "significantly decreased"},
      {"measurement": "rescue of VEGF mediated occludin inhibition", "setting": "[2]; combination with VEGF, immunoblotting", "result": "can rescue VEGF inhibition of occluding"},
      {"measurement": "expression of tight junction protein occludin", "setting": "[2]; single cytokine", "result": "increased expression of this tight junction protein"},
      {"measurement": "HOCF activation / morphology", "setting": "[3]", "result": "activates HOCFs causing them to change morphology"},
      {"measurement": "appearance of vimentin and SMA in MSCs", "setting": "[4]", "result": "strong effect on the appearance of vimentin and SMA"},
      {"measurement": "collagen in MSCs", "setting": "[4]", "result": "increased collagen in MSCs"}
    ]}
  ]
}
